Test results reported in US8148367B2 (Takeda Pharmaceutical Company Limited, priority 2008, dated 2012).

Each molecule was assayed against T1, Recombinant human renin (Homo sapiens, UniProt P00797) (assay: In vitro enzymatic activity assay of renin inhibitors (fluorescence, QXL520/HiLyteFluo488 peptide substrate)). Details: recombinant human renin 3 nM, 1 μM substrate, pre-incubated 10 minutes at 37° C., incubation one hour, pH 7.4, 5% DMSO; read-out: IC50 of Exemplified Compounds Against Renin.
T1 construct: isolate the active form (residues 67-406); made in house; host or cells: FreeStyle 293-F cells, transient expression of pcDNA3.1(+)/hREN
T1 sequence (P00797 67-406): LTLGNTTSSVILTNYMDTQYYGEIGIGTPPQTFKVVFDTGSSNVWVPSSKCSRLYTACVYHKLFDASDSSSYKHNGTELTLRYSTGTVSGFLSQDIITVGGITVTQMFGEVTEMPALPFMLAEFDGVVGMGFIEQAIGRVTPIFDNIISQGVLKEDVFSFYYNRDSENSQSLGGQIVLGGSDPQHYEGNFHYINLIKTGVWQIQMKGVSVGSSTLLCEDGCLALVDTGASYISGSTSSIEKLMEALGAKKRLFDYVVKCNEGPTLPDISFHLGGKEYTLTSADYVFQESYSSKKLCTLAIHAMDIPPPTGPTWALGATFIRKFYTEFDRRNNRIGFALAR
Format: biochemical

SMILES	IC50
O=C(c1c(-c2ccccc2)n([C@H]2CCCC[C@H]2O)c(=O)n1CC1CCCCC1)N1CCNCC1 [Example 157, 1-(Cyclohexylmethyl)-3-((1S,2R)-2-hydroxycyclohexyl)-4-phenyl-5-(piperazine-1-carbonyl)-1H-imidazol-2(3H)-one]	> 1000 nM
COCCOc1cccc(Cn2c(C(=O)N3CCNCC3)c(-c3ccccc3)n(-c3ccccc3C)c2=O)c1 [Example 27, 1-(3-(2-methoxyethoxy)benzyl)-4-phenyl-5-(piperazine-1-carbonyl)-3-o-tolyl-1H-imidazol-2(3H)-one]	100 to 500 nM
COCCOc1cccc(-n2c(-c3cccc(Cl)c3)c(C(=O)N3CCNCC3)[nH]c2=O)c1 [Example 43, 5-(3-Chlorophenyl)-1-(3-(2-methoxyethoxy)phenyl)-4-(piperazine-1-carbonyl)-1H-imidazol-2(3H)-one]	> 1000 nM
COc1ccccc1C(=O)NCCn1c(C(=O)N2CCNCC2)c(-c2ccccc2)n(-c2ccccc2C)c1=O [Example 234, 2-Methoxy-N-(2-(2-oxo-4-phenyl-5-(piperazine-1-carbonyl)-3-o-tolyl-2,3-dihydro-1H-imidazol-1-yl)ethyl)benzamide]	500 to 1000 nM
Cc1ccccc1-n1c(-c2ccccc2)c(C(=O)N2CCNCC2)n(CCNC(=O)c2ccc(Cl)cc2)c1=O [Example 233, 4-Chloro-N-(2-(2-oxo-4-phenyl-5-(piperazine-1-carbonyl)-3-o-tolyl-2,3-dihydro-1H-imidazol-1-yl)ethyl)benzamide]	500 to 1000 nM
Cc1ccccc1-n1c(-c2ccccc2)c(C(=O)N2CCNCC2)n(CCNS(=O)(=O)c2ccccc2F)c1=O [Example 203, 2-Fluoro-N-(2-(2-oxo-4-phenyl-5-(piperazine-1-carbonyl)-3-o-tolyl-2,3-dihydro-1H-imidazol-1-yl)ethyl)benzenesulfonamide]	500 to 1000 nM
Nc1nc(Cn2c(C(=O)N3CCNCC3)c(-c3ccccc3)n(-c3ccccc3)c2=O)cs1 [Example 50, 1-((2-Aminothiazol-4-yl)methyl)-3,4-diphenyl-5-(piperazine-1-carbonyl)-1H-imidazol-2(3H)-one]	500 to 1000 nM
O=C(c1c(-c2ccccc2)n(-c2cccc(N3CCOCC3)c2)c(=O)n1Cc1ccc(F)c(F)c1)N1CCNCC1 [Example 190, 1-(3,4-Difluorobenzyl)-3-(3-morpholinophenyl)-4-phenyl-5-(piperazine-1-carbonyl)-1H-imidazol-2(3H)-one]	500 to 1000 nM

Results, then the molecule that gave them:

IC50	SMILES
< 100 nM	O=C(c1c(-c2ccccc2)n(-c2cccc(N3CCOCC3)c2)c(=O)n1Cc1cccc(Oc2ccccc2)c1)N1CCNCC1 [Example 74, 1-(3-Morpholinophenyl)-3-(3-phenoxybenzyl)-5-phenyl-4-(piperazine-1-carbonyl)-1H-imidazol-2(3H)-one]
< 100 nM	CS(=O)(=O)Nc1ccccc1-n1c(-c2ccccc2)c(C(=O)N2CCNC[C@H]2Cc2ccccc2)[nH]c1=O [Example 118, (R)—N-(2-(4-(2-Benzylpiperazine-1-carbonyl)-2-oxo-5-phenyl-2,3-dihydro-1H-imidazol-1-yl)phenyl)methanesulfonamide]
< 100 nM	O=C(c1c(-c2ccccc2)n(-c2ccccc2)c(=O)n1Cc1cccc(-n2cccc2)c1)N1CCNCC1 [Example 88, 1-(3-(1H-Pyrrol-1-yl)benzyl)-3,4-diphenyl-5-(piperazine-1-carbonyl)-1H-imidazol-2(3H)-one]
< 100 nM	O=C(c1[nH]c(=O)n(-c2ccc3c(c2)NCC3)c1-c1ccccc1)N1CCNC[C@H]1Cc1ccccc1 [Example 136, (R)-4-(2-Benzylpiperazine-1-carbonyl)-1-(indolin-6-yl)-5-phenyl-1H-imidazol-2(3H)-one]
< 100 nM	O=C(c1[nH]c(=O)n(-c2ccccc2[N+](=O)[O-])c1-c1ccccc1)N1CCNC[C@H]1Cc1ccccc1 [Example 117, (R)-4-(2-Benzylpiperazine-1-carbonyl)-1-(2-nitrophenyl)-5-phenyl-1H-imidazol-2(3H)-one]
